The values that follow come from ChEMBL document CHEMBL1949544, “Proteasome inhibitors from Neoboutonia melleri” (J Nat Prod, 2012).

For assay [1], the system named is DLD-1. Briefly: Inhibition of proteasome activity in human DLD1 cells expressing 4-ubiquitin luciferase reporter protein assessed increase of luciferase signal at 1 uM after 7 hrs relative to control. (A reporter such as luciferase makes a cellular process visible.)
For assay [2], the system named is DLD-1. Briefly: Inhibition of proteasome activity in human DLD1 cells expressing 4-ubiquitin luciferase reporter protein assessed increase of luciferase signal at 10 uM after 7 hrs relative to control.
The test system of assay [3] is DLD-1. Briefly: Inhibition of proteasome activity in human DLD1 cells expressing 4-ubiquitin luciferase reporter protein assessed increase of luciferase signal at 5 uM after 7 hrs relative to control.
For assay [4], the system named is DLD-1. The assay is described as follows: Inhibition of proteasome activity in human DLD1 cells expressing 4-ubiquitin luciferase reporter protein assessed increase of luciferase signal at 0.5 uM after 7 hrs relative to control.

`C=C(C(=O)[C@H](OC(C)=O)[C@@H](C)[C@H]1[C@@H](OC(C)=O)C[C@@]2(C)[C@@H]3CC[C@H]4[C@H](C)C(=O)C=C[C@]45C[C@]35CC[C@]12C)[C@@H](C)CO`: the fold change (FC) in assay [1] worked out at 2; in assay [2], 24; in assay [3] it was 84; in assay [4] it was 1.4.

On to `C=C(C(=O)[C@H](OC(C)=O)[C@@H](C)[C@H]1[C@@H](OC(C)=O)C[C@@]2(C)[C@@H]3CC[C@H]4[C@H](C)C(=O)C=C[C@@]45C[C@@]35CC[C@]12C)[C@H](C)CO`, for which the fold change (FC) stood at 1.5 in assay [1], 60 in assay [2], 71 in assay [3] and 1 in assay [4].

For the compound `CC(=O)O[C@H]1C[C@@]2(C)[C@@H]3CC[C@H]4[C@H](C)C(=O)C=C[C@@]45C[C@@]35CC[C@]2(C)[C@H]1[C@H](C)[C@@H](OC(C)=O)C(=O)C=C(C)C`, the figures for the fold change (FC) in assay [1], in assay [2] and in assay [3] were 1.1, 44 and 34, respectively.

Take `CC(=O)O[C@H]1C[C@@]2(C)[C@@H]3CC[C@H]4[C@H](C)C(=O)C=C[C@@]45C[C@@]35CC[C@]2(C)[C@H]1[C@H](C)C=O`: the fold change (FC) stood at 1.1 in assay [1], 3 in assay [2] and 1.3 in assay [3].

For `C=C(C(=O)[C@H](OC(C)=O)[C@@H](C)[C@H]1[C@@H](OC(C)=O)C[C@@]2(C)[C@@H]3CC[C@H]4[C@H](C)C(=O)CC[C@@]45C[C@@]35CC[C@]12C)[C@@H](C)CO`, the results for the fold change (FC) in assay [1], in assay [2] and in assay [3] were 0.9, 48 and 45, respectively.

For the compound `C=C(C(=O)[C@H](O)[C@@H](C)[C@H]1[C@@H](OC(C)=O)C[C@@]2(C)[C@@H]3CC[C@H]4[C@H](C)C(=O)C[C@H](O)[C@@]45C[C@@]35CC[C@]12C)[C@@H](C)CO`, the fold change (FC) in assay [1] stood at 1.6; in assay [2], 74; in assay [3], 11; in assay [4], 1.3.

With `C=C(C(=O)C[C@@H](C)[C@H]1[C@@H](OC(C)=O)C[C@@]2(C)[C@@H]3CC[C@H]4[C@](C)(C(=O)O)[C@@H](O)CC[C@@]45C[C@@]35CC[C@]12C)C(C)CO` (some centres not stated), the fold change (FC) in assay [1] is 1; in assay [2], 2.8; in assay [3], 1.3.

As for `C=C(C(=O)[C@H](O)[C@@H](C)[C@H]1[C@@H](OC(C)=O)C[C@@]2(C)[C@@H]3CC[C@H]4[C@H](C)C(=O)C=C[C@@]45C[C@@]35CC[C@]12C)C(C)C`, the fold change (FC) is 2.4 in assay [1], 20 in assay [2] and 65 in assay [3].

`C=C(C(=O)[C@H](OC(C)=O)[C@@H](C)[C@H]1[C@@H](OC(C)=O)C[C@@]2(C)[C@@H]3CC[C@H]4[C@H](C)C(=O)C=C[C@@]45C[C@@]35CC[C@]12C)[C@@H](C)COC(C)=O`: the figures for the fold change (FC) in assay [1], in assay [3] and in assay [4] were 12, 48 and 1.1, respectively.

With `C=C(C(=O)[C@H](O)[C@@H](C)[C@H]1[C@@H](OC(C)=O)C[C@@]2(C)[C@@H]3CC[C@H]4[C@H](C)C(=O)C=C[C@@]45C[C@@]35CC[C@]12C)[C@@H](C)CO`, the fold change (FC) in assay [1] came to 45; in assay [2] it was 2.9; in assay [3], 28; in assay [4], 1.4.

As for `C=C(C(=O)C[C@@H](C)[C@H]1CC[C@@]2(C)[C@@H]3CC[C@H]4[C@](C)(C(=O)O[C@@H]5O[C@@H](C)[C@H](O)[C@@H](O)[C@H]5O)[C@@H](O)CC[C@@]45C[C@@]35CC[C@]12C)C(C)C`, the fold change (FC) in assay [1] was determined as 1.1; in assay [2], 1.1; in assay [3], 1.

In the case of `C=C(C(=O)[C@H](O)[C@@H](C)[C@H]1[C@@H](OC(C)=O)C[C@@]2(C)[C@@H]3CC[C@H]4[C@](C)(C(=O)O)[C@@H](O)CC[C@@]45C[C@@]35CC[C@]12C)C(C)C`, the fold change (FC) in assay [1] came to 1.2; in assay [2] it was 1.8; in assay [3], 1.3.

Consider `C=C(C(=O)[C@H](O)[C@@H](C)[C@H]1[C@@H](OC(C)=O)C[C@@]2(C)[C@@H]3C[C@@H](O)[C@H]4[C@H](C)C(=O)C=C[C@@]45C[C@@]35CC[C@]12C)[C@@H](C)CO`, for which the fold change (FC) in assay [1] was found to be 1.1; in assay [3] it was 35.

For `C=C(C(=O)C1(O)O[C@H]2C[C@@]3(C)[C@@H]4CC[C@H]5[C@H](C)C(=O)C=C[C@@]56C[C@@]46CC[C@]3(C)[C@H]2[C@@H]1C)[C@@H](C)CO` (some centres not stated), the fold change (FC) came out at 0.9 in assay [1], 2.6 in assay [2] and 1 in assay [3].

For `C=C(C(=O)[C@H](O)[C@@H](C)[C@H]1[C@@H](OC(C)=O)C[C@@]2(C)[C@@H]3CC[C@H]4[C@H](C)C(=O)CC[C@@]45C[C@@]35CC[C@]12C)[C@@H](C)CO`, the fold change (FC) in assay [1] is 1.2; in assay [2] it was 77; in assay [3] it was 10.

In the case of `C=C(C(=O)[C@H](OC(C)=O)[C@@H](C)[C@H]1[C@@H](OC(C)=O)C[C@@]2(C)[C@@H]3C[C@@H](O)[C@H]4[C@H](C)C(=O)C=C[C@@]45C[C@@]35CC[C@]12C)[C@@H](C)CO`, the fold change (FC) in assay [1] was determined as 5.1; in assay [3] it was 31; in assay [4], 1.2.

As to `C=C(C(=O)[C@H](OC(C)=O)[C@@H](C)[C@H]1[C@@H](OC(C)=O)C[C@@]2(C)[C@@H]3CC[C@H]4[C@H](C)C(=O)C=C[C@@]45C[C@@]35CC[C@]12C)[C@@H](C)CO`, the fold change (FC) in assay [1] worked out at 48; in assay [2], 4.4; in assay [3], 37; in assay [4], 2.1.

As to `C=C(C(=O)[C@H](OC(C)=O)[C@@H](C)[C@H]1[C@@H](OC(C)=O)C[C@@]2(C)[C@@H]3CC[C@H]4[C@H](C)C(=O)C=C[C@@]45C[C@@]35CC[C@]12C)[C@@H](C)C=O`, the fold change (FC) in assay [1] was 1; in assay [2] it was 31; in assay [3], 70.

Turning to `C=C(C(=O)[C@H](OC(C)=O)[C@@H](C)[C@H]1[C@@H](OC(C)=O)C[C@@]2(C)[C@@H]3CC[C@H]4[C@H](C)C(=O)C=C[C@@]45C[C@@]35CC[C@]12C)C(C)C`, the values for the fold change (FC) in assay [1], in assay [2] and in assay [3] were 7.2, 19 and 74, respectively.

In the case of `C=C(C(=O)[C@H](O)[C@@H](C)[C@H]1[C@@H](OC(C)=O)C[C@@]2(C)[C@@H]3CC[C@H]4[C@H](C)C(=O)C=C[C@]45C[C@]35CC[C@]12C)[C@@H](C)CO`, the fold change (FC) was 0.9 in assay [1], 9.1 in assay [3] and 0.9 in assay [4].

In the case of `C=C(C(=O)[C@H](OC(C)=O)[C@@H](C)[C@H]1[C@@H](OC(C)=O)C[C@@]2(C)[C@@H]3CC[C@H]4[C@H](C)C(=O)[C@H](O)[C@H]5C[C@]54C3=CC[C@]12C)[C@@H](C)CO`, the fold change (FC) in assay [1] came out at 1.2; in assay [2] it was 15; in assay [3], 1.9.

On to `C=C(C(=O)[C@H](OC(C)=O)[C@@H](C)[C@H]1[C@@H](OC(C)=O)C[C@@]2(C)[C@@H]3CC[C@H]4[C@H](C)C(=O)C=C[C@@]45C[C@@]35CC[C@]12CO)[C@@H](C)CO`, for which the results for the fold change (FC) in assay [1], in assay [2] and in assay [3] were 1.2, 1.1 and 12, respectively.

With `CC(=O)O[C@H]1C[C@@]2(C)[C@@H]3CC[C@H]4[C@H](C)C(=O)C=C[C@@]45C[C@@]35CC[C@]2(C)[C@H]1[C@H](C)[C@@H](O)C(=O)C=C(C)C`, the fold change (FC) in assay [1] is 1.1; in assay [2] it was 53; in assay [3], 5.2.

On to `CC(C)=CC(=O)C[C@@H](C)[C@H]1CC[C@@]2(C)[C@@H]3CC[C@H]4[C@](C)(C(=O)O[C@@H]5O[C@@H](C)[C@H](O)[C@@H](O)[C@H]5O)[C@@H](O)CC[C@@]45C[C@@]35CC[C@]12C`, for which the figures for the fold change (FC) in assay [1], in assay [2] and in assay [3] were 1, 1.1 and 1, respectively.

In the case of `C=C1C(C)CO[C@@]12C[C@@H](C)[C@H]1[C@H](C[C@@]3(C)[C@@H]4CC[C@H]5[C@](C)(C(=O)O)[C@@H](O)CC[C@@]56C[C@@]46CC[C@]13C)O2` (some centres not stated), the fold change (FC) in assay [1] is 1.2; in assay [2] it was 1.3; in assay [3], 1.3.

As to `C=C(C(=O)[C@H](OC(C)=O)[C@@H](C)[C@H]1[C@@H](OC(C)=O)C[C@@]2(C)[C@@H]3[C@H]4O[C@H]4[C@H]4[C@H](C)C(=O)C=C[C@@]45C[C@@]35CC[C@]12C)[C@@H](C)CO`, the fold change (FC) was found to be 2.8 in assay [1], 15 in assay [2] and 72 in assay [3].
